Data taken from PubChem BioAssay (NCI).
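Briefly, cells in 96-well plates were exposed to five compound concentrations for 48 h, and endpoints were estimated by linear interpolation. GI50 marks 50% less growth. TGI marks complete inhibition of growth.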

Key:
Test in all cases: inhibition of tumour cell growth, NCI panel, 48 h
M14 melanoma = tested on: M14 melanoma
IGROV1 ovarian = tested on: IGROV1 ovarian
OVCAR-8 ovarian = tested on: OVCAR-8 ovarian
SK-OV-3 ovarian = tested on: SK-OV-3 ovarian
CCRF-CEM leukemia = tested on: CCRF-CEM leukemia
HS 578T breast = tested on: HS 578T breast
MDA-MB-435 = tested on: MDA-MB-435
HOP-62 NSCLC = tested on: HOP-62 NSCLC
SN12C renal = tested on: SN12C renal
DU-145 prostate = tested on: DU-145 prostate
U251 CNS = tested on: U251 CNS
NCI-H522 lung = tested on: NCI-H522 lung
NCI-H460 lung = tested on: NCI-H460 lung
OVCAR-5 ovarian = tested on: OVCAR-5 ovarian
HOP-92 NSCLC = tested on: HOP-92 NSCLC
UO-31 renal = tested on: UO-31 renal
RPMI-8226 leukemia = tested on: RPMI-8226 leukemia
PC-3 prostate = tested on: PC-3 prostate
A498 renal = tested on: A498 renal
HCT-116 colon = tested on: HCT-116 colon
OVCAR-3 ovarian = tested on: OVCAR-3 ovarian
SR leukemia = tested on: SR leukemia
NCI-H226 lung = tested on: NCI-H226 lung
SF-295 CNS = tested on: SF-295 CNS
NCI-H23 lung = tested on: NCI-H23 lung
COLO 205 colon = tested on: COLO 205 colon
HCC-2998 colon = tested on: HCC-2998 colon
T-47D breast = tested on: T-47D breast
UACC-62 melanoma = tested on: UACC-62 melanoma
MDA-MB-231 breast = tested on: MDA-MB-231 breast
HT29 colon = tested on: HT29 colon
NCI/ADR-RES ovarian = tested on: NCI/ADR-RES ovarian
UACC-257 melanoma = tested on: UACC-257 melanoma
CAKI-1 renal = tested on: CAKI-1 renal
RXF 393 renal = tested on: RXF 393 renal
EKVX NSCLC = tested on: EKVX NSCLC
HL-60(TB) leukemia = tested on: HL-60(TB) leukemia
SF-539 CNS = tested on: SF-539 CNS
786-0 renal = tested on: 786-0 renal
MALME-3M melanoma = tested on: MALME-3M melanoma
LOX IMVI melanoma = tested on: LOX IMVI melanoma
MDA-N = tested on: MDA-N
HCT-15 colon = tested on: HCT-15 colon
SNB-19 CNS = tested on: SNB-19 CNS
BT-549 breast = tested on: BT-549 breast
SNB-75 CNS = tested on: SNB-75 CNS
ACHN renal = tested on: ACHN renal
SW-620 colon = tested on: SW-620 colon
MOLT-4 leukemia = tested on: MOLT-4 leukemia
K-562 leukemia = tested on: K-562 leukemia
SK-MEL-28 melanoma = tested on: SK-MEL-28 melanoma
MCF7 breast = tested on: MCF7 breast
SF-268 CNS = tested on: SF-268 CNS
KM12 colon = tested on: KM12 colon
A549 NSCLC = tested on: A549 NSCLC
OVCAR-4 ovarian = tested on: OVCAR-4 ovarian
SK-MEL-5 melanoma = tested on: SK-MEL-5 melanoma
TK-10 renal = tested on: TK-10 renal
SK-MEL-2 melanoma = tested on: SK-MEL-2 melanoma

O=S(=O)(Nc1nccs1)c1ccc(Nc2nc(-c3cccs3)nc3ccc(I)cc23)cc1
TGI (M14 melanoma): 58.5 µM
TGI (IGROV1 ovarian): 58.7 µM
TGI (OVCAR-8 ovarian): > 69.4 µM
TGI (SK-OV-3 ovarian): 67 µM
TGI (CCRF-CEM leukemia): > 19.9 µM
GI50 (HS 578T breast): 14 µM
TGI (HS 578T breast): > 70 µM
TGI (MDA-MB-435): 44 µM
TGI (HOP-62 NSCLC): 51.1 µM
TGI (SN12C renal): > 74.6 µM
TGI (DU-145 prostate): 46.5 µM
TGI (U251 CNS): 54.7 µM
TGI (NCI-H522 lung): > 73.1 µM
TGI (NCI-H460 lung): > 81.6 µM
TGI (OVCAR-5 ovarian): 86.3 µM
TGI (HOP-92 NSCLC): 40 µM
TGI (UO-31 renal): 65.1 µM
TGI (RPMI-8226 leukemia): 20.1 µM
TGI (PC-3 prostate): 32.7 µM
GI50 (A498 renal): 17.4 µM
TGI (A498 renal): > 62.3 µM
TGI (HCT-116 colon): 36.8 µM
TGI (OVCAR-3 ovarian): 39.9 µM
TGI (SR leukemia): 68.4 µM
TGI (NCI-H226 lung): 74.8 µM
TGI (SF-295 CNS): 43.1 µM
TGI (NCI-H23 lung): > 75.8 µM
TGI (COLO 205 colon): 38.2 µM
TGI (HCC-2998 colon): 51.5 µM
TGI (T-47D breast): 56.6 µM
TGI (UACC-62 melanoma): 52.6 µM
GI50 (MDA-MB-231 breast): > 37.8 µM
TGI (MDA-MB-231 breast): > 57.2 µM
TGI (HT29 colon): 51.7 µM
TGI (NCI/ADR-RES ovarian): > 100 µM
TGI (UACC-257 melanoma): > 65.7 µM
TGI (CAKI-1 renal): 48.7 µM
TGI (RXF 393 renal): > 92.2 µM
TGI (EKVX NSCLC): 48.1 µM
TGI (HL-60(TB) leukemia): > 89.3 µM
TGI (SF-539 CNS): 68.3 µM
TGI (786-0 renal): 89.4 µM
TGI (MALME-3M melanoma): 44.2 µM
TGI (LOX IMVI melanoma): 51.8 µM
TGI (MDA-N): > 100 µM
TGI (HCT-15 colon): > 80.9 µM
TGI (SNB-19 CNS): > 93 µM
TGI (BT-549 breast): 54 µM
TGI (SNB-75 CNS): 74 µM
TGI (ACHN renal): > 75.2 µM
TGI (SW-620 colon): > 59.6 µM
TGI (MOLT-4 leukemia): > 62.4 µM
TGI (K-562 leukemia): > 55.8 µM
TGI (SK-MEL-28 melanoma): 56 µM
TGI (MCF7 breast): > 100 µM
TGI (SF-268 CNS): > 100 µM
TGI (KM12 colon): 44.1 µM
TGI (A549 NSCLC): 71.2 µM
TGI (OVCAR-4 ovarian): 63.2 µM
TGI (SK-MEL-5 melanoma): 28.4 µM
TGI (TK-10 renal): 44.5 µM
TGI (SK-MEL-2 melanoma): > 77.9 µM

O=C1NC(N/N=C\C(O)C(O)C(O)C(O)CO)=N/C1=C\c1ccc(Cl)cc1 (stereo not given)
TGI (M14 melanoma): 18.1 µM
TGI (IGROV1 ovarian): 31.9 µM
TGI (OVCAR-8 ovarian): 5.63 µM
TGI (SK-OV-3 ovarian): 40.6 µM
TGI (CCRF-CEM leukemia): > 73.1 µM
TGI (HS 578T breast): 6.68 µM
TGI (MDA-MB-435): 34.7 µM
TGI (HOP-62 NSCLC): 7.5 µM
TGI (SN12C renal): 15.3 µM
TGI (DU-145 prostate): 91.5 µM
TGI (NCI-H522 lung): 7.46 µM
TGI (NCI-H460 lung): 32.3 µM
TGI (OVCAR-5 ovarian): > 66.6 µM
TGI (HOP-92 NSCLC): 7.44 µM
TGI (UO-31 renal): > 79.9 µM
TGI (RPMI-8226 leukemia): > 100 µM
TGI (PC-3 prostate): 18.5 µM
TGI (A498 renal): 39.9 µM
TGI (HCT-116 colon): > 40.4 µM
TGI (OVCAR-3 ovarian): 6.88 µM
TGI (SR leukemia): 19.3 µM
TGI (NCI-H226 lung): 10.6 µM
TGI (SF-295 CNS): 31.5 µM
TGI (NCI-H23 lung): 21.2 µM
TGI (COLO 205 colon): 23.7 µM
TGI (HCC-2998 colon): 36.3 µM
TGI (T-47D breast): 14.1 µM
TGI (UACC-62 melanoma): 3.14 µM
TGI (MDA-MB-231 breast): 15.2 µM
TGI (HT29 colon): 36.3 µM
TGI (NCI/ADR-RES ovarian): > 100 µM
TGI (UACC-257 melanoma): 37.4 µM
TGI (CAKI-1 renal): > 100 µM
TGI (RXF 393 renal): 25.6 µM
TGI (EKVX NSCLC): 38.9 µM
TGI (HL-60(TB) leukemia): > 72.1 µM
TGI (SF-539 CNS): 1.01 µM
TGI (786-0 renal): 18.1 µM
TGI (MALME-3M melanoma): 5.95 µM
TGI (LOX IMVI melanoma): 12.8 µM
TGI (MDA-N): 9.99 µM
TGI (HCT-15 colon): > 100 µM
TGI (SNB-19 CNS): 10.9 µM
TGI (BT-549 breast): 31.4 µM
TGI (SNB-75 CNS): 6.04 µM
TGI (ACHN renal): > 59.1 µM
TGI (SW-620 colon): > 100 µM
TGI (MOLT-4 leukemia): 24.6 µM
TGI (K-562 leukemia): > 100 µM
TGI (SK-MEL-28 melanoma): > 100 µM
TGI (MCF7 breast): > 100 µM
TGI (SF-268 CNS): 10.5 µM
TGI (KM12 colon): > 80.7 µM
TGI (A549 NSCLC): > 73.3 µM
TGI (OVCAR-4 ovarian): 26 µM
TGI (SK-MEL-5 melanoma): 31.4 µM
TGI (TK-10 renal): 27.4 µM
TGI (SK-MEL-2 melanoma): 23.1 µM
